Experimental data from patent publication US20140303216A1, “COMPOSITIONS AND METHODS FOR INDUCING DISRUPTION OF BLOOD VASCULATURE AND FOR REDUCING ANGIOGENESIS” (BOARD OF REGENTS, THE UNIVERSITY OF TEXAS SYSTEM, priority 2011, published 2014).

Legend:
[1] = test system: developing Xenopus embryos; test: Ectopic angiogenesis stimulated by VEGF-soaked beads implanted into Xenopus embryos; assay type: in vivo, Xenopus laevis
Protocol: FIG. 12. TBZ inhibits ectopic angiogenesis (note the doubled PCV in the left panel) stimulated by Affy-gel blue beads (75-150 μm diameter, indicated by white arrowheads) pre-soaked with 0.7 mg/ml vascular endothelial growth factor (VEGF) and microsurgically implanted into developing Xenopus embryos, assaying for the vasculature by ISH versus erg or apinr (showing data for erg). 6 of 8 control animals developed ectopic PCV or VV, as opposed to 0 of 9 TBZ-dosed animals (p value=0.0023).
Female adult Xenopus were ovulated by injections of human chorionic gonadotropin, and eggs were fertilized in vitro and dejellied in 3% cysteine (pH 7.9) and subsequently reared in ⅓×Marc's modified Ringer's (MMR) solution. For microinjections, embryos were placed in a solution of 2% Ficoll in ⅓×MMR solution, injected using forceps and an Oxford universal manipulator, reared in 2% Ficoll in ⅓×MMR to stage 9, then washed and reared in ⅓×MMR solution alone. For bilateral rab11b knock-down experiments, the posterior cardinal vein and intersomitic veins were targeted by injecting Morpholino antisense oligonucleotides (MOs) into the two ventral cells equatorially at the four-cell stage. For unilateral knockdown, only one ventral cell was injected. MOs were injected at 40 ng per blastomere. […]

tubulin proteins = test: Quantitative mass spectrometry of tubulins in HUVECs; assay type: cell-based, human; conditions: 250 μM TBZ, 24 hours
Protocol: Following alkylation, samples were diluted in digestion buffer (50 mM Tris-HCl, pH 8.0, 2 mM CaCl2) to a final 2,2,2-trifluoroethanol concentration of 5% (v/v) and digested using proteomics grade trypsin (Sigma) at 1:50 (enzyme/protein) concentration and incubated at 37° C. for 4-5 h. Digestion was halted with the addition of 1% formic acid (v/v), and sample volume was reduced to 200 μl by SpeedVac centrifugation prior to loading on […] (Thermo). Samples were eluted (60% acetonitrile, 0.1% formic acid), reduced to 10 μl by SpeedVac centrifugation, and resuspended in sample buffer (5% acetonitrile, 0.1% formic acid). Tryptic peptides were then filtered through Microcon 10-kDa centrifugal filters (Millipore), and collected as flow-through. Peptides were chromatographically separated on a Zorbax reverse-phase C-18 column (Agilent) via a 230 min 5-38% acetonitrile gradient, then analyzed by on-line nanoelectrospray-ionization tandem mass spectrometry on an LTQ-Orbitrap (Thermo Scientific). […] Differential expression of proteins across TBZ-treated and control samples was quantified from the MS2 spectral count data using the APEX method of relative quantification^32.

[2] = test system: developing Xenopus embryos; test: Xenopus embryo angiogenesis, in situ hybridization for erg/apinr and kdr:GFP imaging; assay type: in vivo, Xenopus laevis
Source text: Female adult Xenopus were ovulated by injections of human chorionic gonadotropin, and eggs were fertilized in vitro and dejellied in 3% cysteine (pH 7.9) and subsequently reared in ⅓×Marc's modified Ringer's (MMR) solution. For microinjections, embryos were placed in a solution of 2% Ficoll in ⅓×MMR solution, injected using forceps and an Oxford universal manipulator, reared in 2% Ficoll in ⅓×MMR to stage 9, then washed and reared in ⅓×MMR solution alone. For bilateral rab11b knock-down experiments, the posterior cardinal vein and intersomitic veins were targeted by injecting Morpholino antisense oligonucleotides (MOs) into the two ventral cells equatorially at the four-cell stage. For unilateral knockdown, only one ventral cell was injected. MOs were injected at 40 ng per blastomere. For the experiments to see the drug effects, embryos were placed in a solution of each chemical dissolved in 1% DMSO diluted in ⅓×MMR during indicated stages. For bead micro-surgery implantation, Affi-Gel Blue Gel beads (Bio-Rad) were soaked with 0.7 mg/ml recombinant mouse VEGF 164 aa (R&D systems) or BSA as a control. Whole-mount in situ hybridization for erg and apinr was performed as described^29.
To analyze action of TBZ precisely on inhibition of angiogenesis and disruption of vasculature, we tested TBZ on two different developmental stages. Xenopus late tailbud embryos at stage 31 were selected for testing the inhibitory effect of TBZ on angiogenesis (FIG. 3A-D). This embryonic stage coincides with the onset of intersomitic vein (ISV) angiogenesis, the process of forming smaller blood vessels by sprouting from pre-existing blood vessels. To observe disruption of existing vasculature, we selected stage 35/36 embryos in which the posterior cardinal vein (PCV) and ISV are already developed (FIG. 15).

HUVECs = test: HUVEC wound scratch cell migration assay; assay type: cell-based, human; conditions: 250 μM TBZ, 15 h
Protocol: HUVECs (1.2×10^5 cells) were seeded into 24-well plate for 24 h, and the monolayers were wounded identically. Then, cells were washed with PBS and treated with EBM-2 containing 1% DMSO or 250 μM TBZ dissolved in 1% DMSO with combination of Y27632 or GGPP (Sigma). In the case of Y27632 treatment, cells were preincubated for 2 h before wounding. Cells were photographed at time zero and after 15 h, and the ratios of cell free area [(0 h-15 h)/0 h] were calculated.

HT1080 cells = test: HT1080 cell proliferation in vitro; assay type: cell-based, human; conditions: cultured in vitro
Source text: FIG. 21. […] Error bars represent mean±1 s.d. across 14-15 fields of view of 200× magnification confocal microscopy cell images across 2 independent experiments. Scale bar, 100 μm.

HUVEC cells = test: HUVEC apoptosis and proliferation (Caspase-3, Phospho-histone H3 immunostaining); assay type: cell-based, human; conditions: cultured on 0.1% gelatin
Source text: FIG. 18. TBZ treatment (A) increases apoptosis and (B) decreases proliferation of HUVEC cells cultured on 0.1% gelatin, but only by approximately 2-fold. Both changes are significant under a t test (p=0.015, p=0.01, respectively). Error bars represent mean±1 s.d. across 14-16 fields of view of 200× magnification confocal microscopy cell images across 2-3 independent experiments. Scale bar, 100 μm.
Control cells received 1% DMSO.

[3] = short-term or long-term studies at doses up to 15 times the usual human dose; cited from earlier work

## c1ccc2[nH]c(-c3cscn3)nc2c1 [TBZ, 4-(1H-1,3-benzodiazol-2-yl)-1,3-thiazole]
[1]; beads soaked with 0.7 mg/ml VEGF, control 6 of 8, p value=0.0023
  animals that developed ectopic PCV or VV: 0 of 9
[1]; frog embryos
  ectopic angiogenesis induced by ectopic VEGF: blocked
Tubulin proteins
  abundance of several tubulin proteins: significant reduction
[2]; Xenopus embryos in vivo
  concentration at which angiogenesis inhibition was observed: 100 to 250 µM
[2]; Xenopus embryos, 250 μM TBZ in 1% DMSO, treated at stage 31, imaged at stages 35-36
  angiogenesis, expression of vascular-specific genes apinr and erg: severely impaired angiogenesis
[2]; treatment at later stages (stage 36), in situ hybridization versus apinr at stage 39
  disruption of pre-existing vasculature: overt breakdown of established vasculature
HUVECs
  endothelial cell migration in scratch wound assay: significantly slowed
HT1080 cells
  rate of proliferation in HT1080 cells: did not alter
HUVEC cells; p=0.01
  decrease of proliferation of HUVEC cells: approximately 2 fold
HUVEC cells; p=0.015
  increase of apoptosis of HUVEC cells: approximately 2 fold
[3]
  carcinogenic effects: no carcinogenic effects
